In patent US11660280B2, “Treatment of drug resistant gliomas” (OKLAHOMA MEDICAL RESEARCH FOUNDATION, priority 2017, dated 2023):
Where a name gives a salt, the structure may show the parent alone. Blank lines part the entries; values can stand above or below the compound they belong to.

Experiments:
[1] = in vivo; cited from earlier work
[2] = test system: C6 gliomas; conditions: rat C6 glioma, cited from earlier work
[3] = rats; cited from earlier work
[4] = test system: G55 cells; test: IC50 TMZ sensitivity (50% growth inhibition, cell counts); type: cell-based; conditions: Homo sapiens, 72 h, TMZ alone
Description: (§1) Culture Collection (ATCC; Manassas, VA, USA) (U-138—ATCC (CRL-HTB-16) glioblastoma; LN-18—ATCC (CRL-2610) glioblastoma; LN-229—ATCC (CRL-2611) glioblastoma; and T-98G—ATCC—(CRL-1690). U-251 GBM cells were obtained from Sigma-Aldrich (N#09063001 also known before as U-373 MG (ATCC® HTB-17)). G55 cells were obtained from Dr. Michael Sughrue, who was a resident at Univ. of California San Francisco (originally obtained from C. David James (Department of Neurological Surgery, UCSF, CA, USA), who characterized the cells).
(§2) Cells were cultured in Dulbecco's modified Eagle's medium (DMEM, Gibco BRL, Crand Island, N.Y., USA) supplemented with 10% fetal bovine serum (Gibco) in a standard humidified incubator at 37° C. under 5% CO2.
(§3) IC50 concentrations—Protocol for TMZ sensitivity determination. […] Briefly, cells were plated at 1×10^4 cells per well in 24-well, flat-bottomed plates and incubated with medium for 24 hrs. The cells were subsequently washed twice with medium and incubated further with fresh medium (control) or medium containing 0.1-1,000 μM of TMZ. Per each plate contained growth medium with +/−TMZ there was a plate with medium containing 1 mM OKN. After exposure to the various concentrations of TMZ for 72 hrs, cells were detached by trypsinization and the numbers counted. The experiments were repeated at least 4 times at each concentration.

[5] = test system: LN18 cells; test: as above; type: cell-based; conditions: Homo sapiens, LN-18, TMZ alone, 72 hrs
Description: as §1, §2, §3

[6] = test system: U138 cells; test: as above; type: cell-based; conditions: Homo sapiens, TMZ alone, 72 hrs
Description: as §1, §2, §3

[7] = test system: U251 cells; test: as above; type: cell-based; conditions: Homo sapiens, U-251, TMZ alone, 72 hrs
Description: as §1, §2, §3

[8] = test system: LN229 cells; test: as above; type: cell-based, human; conditions: TMZ alone
Description: as §1, §2, §3

[9] = test system: T98 cells; test: as above; type: cell-based, human; conditions: TMZ alone
Description: as §1, §2, §3

[10] = test system: HIF-1α; test: RT-PCR gene-fold changes in human GBM cells; type: cell-based
Description: (§4) Quantification of mRNA by real-time quantitative RT-PCR for HIF-1a, MPG and MGMT. Total RNA from all cell lines with all treatments was purified with an RNeasy Mini Kit (Qiagen), and quantified by spectrophotometry (Nanodrop). cDNA was synthesized using SuperScript IV Reverse Transcriptase Kit (Invitrogen).
(§5) Target gene mRNA was amplified and measured by Bio-Rad CFX96™ Real Time System. Gene expression was determined using the SYBR Select Master Mix (Applied Biosystems). […] The reaction is characterized by the point during cycling when amplification of PCR products is first detected, rather than the amount of PCR product accumulated after a fixed number of cycles. The higher the starting quantity of the template, the earlier a significant increase in fluorescence is observed. The threshold cycle is defined as the fractional cycle number at which fluorescence passes a fixed threshold above the baseline. Fluorescence data were converted into cycle threshold measurements exported to Microsoft Excel. Glyceraldehyde-3-phosphatase dehydrogenase (GAPDH) mRNA expression levels were used as the quantitative internal control. For precise quantification, the mRNA expression level of each sample was normalized using the expression of the GAPDH gene.
(§6) All primers were synthesized by Integrated DNA Technologies. The primers used were: […]

[11] = test system: MGMT; test: RT-PCR gene-fold changes in human GBM cells; type: cell-based
Description: as §4, §5, §6
(§7) were used to amplify 603-bp transcripts of MPG [9].

[12] = test system: MPG; test: RT-PCR gene-fold changes in human GBM cells; type: cell-based
Description: as §4, §5, §6, §7

[13] = test system: HIF-1α; test: ELISA protein level in human GBM cell lysates; type: cell-based
Description: (§8) ELISA for HIF-1a, MPG and MGMT. Protein expressions were assessed in all six glioma cell lines for all four groups of treatment (cell alone, cells with TMZ, cells with OKN, cells with combined OKN and TMZ). Cells were lysed before assaying. In brief, cells were washed by cold PBS gently, and then detached with trypsin, and collected by centrifugation at 1,000×g for 5 minutes. Then, cells were washed three times in cold PBS, then suspended in fresh lysis buffer. Lysates were centrifuged at 1,500×g for 10 minutes at 2-8° C. to remove cellular debris.
(§9) The assay is based on the sandwich ELISA principle. Each well of the supplied microtiter plate has been pre-coated with a target specific capture antibody. Standards or samples are added to the wells and the target antigen binds to the capture antibody. Unbound Standard or sample is washed away. A biotin-conjugated detection antibody is then added which binds to the captured antigen. Unbound detection antibody is washed away. An Avidin-Horseradish Peroxidase (HRP) conjugate is then added which binds to the biotin. Unbound Avidin-HRP conjugate is washed away. A TMB substrate is then added which reacts with the HRP enzyme resulting in color development. A sulfuric acid stop solution is added to terminate color development reaction and then the optical density (OD) of the well is measured at a wavelength of 450 nm±2 nm. The OD of an unknown sample can then be compared to an OD standard curve generated using known antigen concentrations in order to determine its antigen concentration.
(§10) The antigen concentration determined from ELISA was then normalized to the total protein concentration of each cell lysate in order to have comparison between groups. ELISA Kits for N-Methylpurine DNA Glycosylase (MPG) and for Hypoxia Inducible Factor 1 Alpha (HIF1a) were purchased from CLOUD-CLONE CORP.(CCC) and for Human MGMT from LifeSpan Biosciences, Inc.

[14] = test system: MGMT; test: ELISA protein level in human GBM cell lysates; type: cell-based
Description: as §8, §9, §10

[15] = test system: MPG; test: ELISA protein level in human GBM cell lysates; type: cell-based
Description: as §8, §9, §10

[16] = patients; cited from earlier work
[17] = T98 cells (TMZ-resistant), UT 1.00
[18] = U251 cells (TMZ-sensitive), UT 1.00

Structure (SMILES): O=NN(CCCl)C(=O)NC1CCCCC1 [Lomustine, 1-(2-chloroethyl)-3-cyclohexyl-1-nitrosourea]
crossing of the blood brain barrier [1]: crosses the blood brain barrier

Structure (SMILES): CC(C)(C)[N+]([O-])=Cc1ccccc1 [PBN, phenyl N-tert-butyl nitrone]
tumors with reduced tumor growth ([2]; post-treatment): ~50%
tumors with reduced growth ([2]; pre-treatment): > 80%
half-life [3]: about 132 minutes
crossing of the blood brain barrier [1]: easily penetrate the BBB

IC50 [7]: 176 µM
Structure (SMILES): Cn1nnc2c(C(N)=O)ncn2c1=O [TMZ, Temozolomide, reference compound]
IC50 ([4]; G55 (high) passage): 94.3 µM
IC50 ([4]; G55 (low) passage): 567 µM
IC50 [5]: 774 µM
IC50 [6]: 448 µM
IC50 ([8]; Homo sapiens, LN-229, 72 h): 108 µM
IC50 ([8]; 72 hrs): ~100 µM
IC50 ([9]; Homo sapiens, T98, 72 h): 438 µM
IC50 ([9]; 72 hrs): 447 µM
RT-PCR gene-fold change HIF-1α ([10]; G55 cells (TMZ-resistant), UT 1.00): 1.85 fold
RT-PCR gene-fold change HIF-1α ([10]; LN18 cells (TMZ-resistant), UT 1.03): 2.11 fold
RT-PCR gene-fold change HIF-1α ([10]; LN229 cells (TMZ-sensitive), UT 1.00): 1.41 fold
RT-PCR gene-fold change HIF-1α [10, 17]: 1.72 fold
RT-PCR gene-fold change HIF-1α ([10]; U138 cells (TMZ-resistant), UT 1.00): 2.05 fold
RT-PCR gene-fold change HIF-1α [10, 18]: 1.48 fold
RT-PCR gene-fold change MGMT ([11]; LN18 cells (TMZ-resistant), UT 1.06): 0.77 fold
RT-PCR gene-fold change MGMT [11, 17]: 1.07 fold
RT-PCR gene-fold change MGMT [11, 18]: 1.32 fold
RT-PCR gene-fold change MPG ([12]; G55 cells (TMZ-resistant), UT 1.06): 2.53 fold
RT-PCR gene-fold change MPG ([12]; LN18 cells (TMZ-resistant), UT 1.00): 2.95 fold
RT-PCR gene-fold change MPG ([12]; LN229 cells (TMZ-sensitive), UT 1.10): 1.22 fold
RT-PCR gene-fold change MPG ([12]; T98 cells (TMZ-resistant), UT 1.10): 1.22 fold
RT-PCR gene-fold change MPG ([12]; U138 cells (TMZ-resistant), UT 1.13): 7.14 fold
RT-PCR gene-fold change MPG ([12]; U251 cells (TMZ-sensitive), UT 1.10): 1.11 fold
ELISA protein level HIF-1α ([13]; G55 cells, UT 0.14): 1.08 ng/mg cell lysate
ELISA protein level HIF-1α ([13]; LN18 cells, UT 0 76): 0.83 ng/mg cell lysate
ELISA protein level HIF-1α ([13]; LN229 cells, UT 0.68): 0.74 ng/mg cell lysate
ELISA protein level HIF-1α ([13]; T98 cells, UT 0.42): 0.77 ng/mg cell lysate
ELISA protein level HIF-1α ([13]; U138 cells, UT 0.40): 0.84 ng/mg cell lysate
ELISA protein level HIF-1α ([13]; U251 cells, UT 0.30): 1.41 ng/mg cell lysate
ELISA protein level MGMT ([14]; G55 cells, UT 0.37): 1.19 ng/mg cell lysate
ELISA protein level MGMT ([14]; LN18 cells, UT 1.23): 1.28 ng/mg cell lysate
ELISA protein level MGMT ([14]; LN229 cells, UT 0.67): 0.75 ng/mg cell lysate
ELISA protein level MGMT ([14]; T98 cells, UT 0.62): 1.76 ng/mg cell lysate
ELISA protein level MGMT ([14]; U138 cells, UT 0.77): 0.98 ng/mg cell lysate
ELISA protein level MGMT ([14]; U251 cells, UT 0.92): 1.48 ng/mg cell lysate
ELISA protein level MPG ([15]; G55 cells, UT 1.15): 1.50 ng/mg cell lysate
ELISA protein level MPG ([15]; LN18 cells, UT 2.18): 2.27 ng/mg cell lysate
ELISA protein level MPG ([15]; LN229 cells, UT 2.34): 1.93 ng/mg cell lysate
ELISA protein level MPG ([15]; T98 cells, UT 3.04): 3.82 ng/mg cell lysate
ELISA protein level MPG ([15]; U138 cells, UT 1.30): 1.50 ng/mg cell lysate
ELISA protein level MPG ([15]; U251 cells, UT 2.70): 4.99 ng/mg cell lysate
incidence of severe nausea and vomiting (each) [16]: around 4%

Structure (SMILES): CC[C@]1(O)C[C@H]2CN(CCc3c([nH]c4ccccc34)[C@@](C(=O)OC)(c3cc4c(cc3OC)N(C=O)[C@H]3[C@@](O)(C(=O)OC)[C@H](OC(C)=O)[C@]5(CC)C=CCN6CC[C@]43[C@@H]65)C2)C1 [Vincristine, vincaleukoblastine, a 22-oxo-, sulfate (1:1) (salt)]
crossing of the blood brain barrier [1]: does not appear to cross the blood brain barrier
